Laboratory results published in patent US20190343190A1, “MATERIALS INCLUDING POLYMERIC FIBERS INCORPORATING MICROCAPSULES OR NANOCAPSULES INCLUDING AN ESSENTIAL OIL” (President and Fellows of Harvard College, priority 2016, published 2019).

Key:
[1] = Polystyrene-water partition of citral; assay type: physicochemical
Text: The polymer matrix should not dissolve through bulk degradation or boundary degradation as it is very inert and unreactive, plus divinylbenzene provides additional stability. […] This is extremely high: its predicts the existence of approximately 5000 molecules of citral within the nanocapsule core or polystyrene shell for every molecule in surrounding water. This dictates a fixed equilibrium between concentration in polystyrene nanocapsule Cp and surrounding water Cw given by the equation: Cp/Cw=10^3.7=5011

[2] = biological target: leucine dehydrogenase (Bacillus subtilis, UniProt P54531); settings: cited from earlier work
leucine dehydrogenase, sequence (P54531 whole entry): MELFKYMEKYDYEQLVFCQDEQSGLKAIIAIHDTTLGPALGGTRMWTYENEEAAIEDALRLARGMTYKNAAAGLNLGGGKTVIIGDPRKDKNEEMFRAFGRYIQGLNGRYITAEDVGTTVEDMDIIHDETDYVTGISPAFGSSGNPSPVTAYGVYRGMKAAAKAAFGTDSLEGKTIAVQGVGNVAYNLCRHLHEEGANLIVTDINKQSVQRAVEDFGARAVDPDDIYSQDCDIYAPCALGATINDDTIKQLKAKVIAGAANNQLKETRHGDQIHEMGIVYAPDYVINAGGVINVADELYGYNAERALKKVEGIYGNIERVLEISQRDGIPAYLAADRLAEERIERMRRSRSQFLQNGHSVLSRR

Q: Which results are given for CC(C)=CCCC(C)=CC=O [citral]?
A: Molecules within the nanocapsule core or polystyrene shell for every molecule in surrounding water [1]: approximately 5000; Binding affinity compared with branched chain amino acids [2]: higher binding affinity
